Reference: patent US6635802B1, “Nuclear transfer using cells cultured in serum starvation media containing apoptosis inhibitors” (The Texas A&M University System, priority 2000, dated 2003)

Tests used:
porcine PGCs = experiment: Porcine PGCs plated in chambered slides in the absence of feeder layers, with or without growth factors; AP-positive cells counted; assay type: cell-based; details: for Number of PGCs surviving in culture, in words: absence of feeder layers, 24, 48, 72 hours
Experimental: FIG. 8. Freshly isolated PGCs were plated in chambered slides in the absence of feeder cells and incubated in media with no protease inhibitors or antioxidants (PES), with MAC (MAC) or with NAC (NAC), either with or without growth factors (G), for 24, 48 or 72 hours. Cells were fixed, stained for alkaline phosphatase (AP) as previously described, and counted (normalized to control; left vertical axis).
After culture, colonies were stained, counted and analyzed as described above. To determine the effects of MAC and NAC on porcine PGCs, cells were exposed to those inhibitors during the first half period of culture (4-5 days) or the last half period (4-5 days), respectively. In addition, to determine the effect of MAC and NAC in the absence of feeders, cells were plated on chambered slides previously coated with 0.1% gelatin and medium with or without inhibitors in the presence or absence of growth factors. Cells were fixed, stained for AP and counted at the interval of 24, 48, and 72 hours.
Freshly isolated PGCs were plated in chambered slides in the absence of feeders and incubated in media with or without growth factors (GF) and with or without MAC and NAC. Cells were fixed, stained for AP as previously described, and counted.

mouse ES cells = experiment: Culture of mouse ES cells with NAC; assay type: cell-based

Row | Molecule | Rescue of PGCs, in words (porcine PGCs; absence of feeder layers and of growth factors, after 72 hr of culture) | Number of PGCs surviving in culture, in words (porcine PGCs) | % viable cells, in words (mouse ES cells; in the presence of NAC) | Effect on mouse ES cells, in words (mouse ES cells; normal culture conditions and absence of BME)
1 | CC(=O)N[C@@H](CS)C(=O)O [NAC, N-acetylcysteine] | able to rescue the PGCs | increased the number of PGCs surviving in culture | not greatly affected | beneficial effect
2 | α2-macroglobulin (protein, UniProt P01023 24-1474, looked up) Alpha-2-macroglobulin: SVSGKPQYMVLVPSLLHTETTEKGCVLLSYLNETVTVSASLESVRGNRSLFTDLEAENDVLHCVAFAVPKSSSNEEVMFLTVQVKGPTQEFKKRTTVMVKNEDSLVFVQTDKSIYKPGQTVKFRVVSMDENFHPLNELIPLVYIQDPKGNRIAQWQSFQLEGGLKQFSFPLSSEPFQGSYKVVVQKKSGGRTEHPFTVEEFVLPKFEVQVTVPKIITILEEEMNVSVCGLYTYGKPVPGHVTVSICRKYSDASDCHGEDSQAFCEKFSGQLNSHGCFYQQVKTKVFQLKRKEYEMKLHTEAQIQEEGTVVELTGRQSSEITRTITKLSFVKVDSHFRQGIPFFGQVRLVDGKGVPIPNKVIFIRGNEANYYSNATTDEHGLVQFSINTTNVMGTSLTVRVNYKDRSPCYGYQWVSEEHEEAHHTAYLVFSPSKSFVHLEPMSHELPCGHTQTVQAHYILNGGTLLGLKKLSFYYLIMAKGGIVRTGTHGLLVKQEDMKGHFSISIPVKSDIAPVARLLIYAVLPTGDVIGDSAKYDVENCLANKVDLSFSPSQSLPASHAHLRVTAAPQSVCALRAVDQSVLLMKPDAELSASSVYNLLPEKDLTGFPGPLNDQDNEDCINRHNVYINGITYTPVSSTNEKDMYSFLEDMGLKAFTNSKIRKPKMCPQLQQYEMHGPEGLRVGFYESDVMGRGHARLVHVEEPHTETVRKYFPETWIWDLVVVNSAGVAEVGVTVPDTITEWKAGAFCLSEDAGLGISSTASLRAFQPFFVELTMPYSVIRGEAFTLKATVLNYLPKCIRVSVQLEASPAFLAVPVEKEQAPHCICANGRQTVSWAVTPKSLGNVNFTVSAEALESQELCGTEVPSVPEHGRKDTVIKPLLVEPEGLEKETTFNSLLCPSGGEVSEELSLKLPPNVVEESARASVSVLGDILGSAMQNTQNLLQMPYGCGEQNMVLFAPNIYVLDYLNETQQLTPEIKSKAIGYLNTGYQRQLNYKHYDGSYSTFGERYGRNQGNTWLTAFVLKTFAQARAYIFIDEAHITQALIWLSQRQKDNGCFRSSGSLLNNAIKGGVEDEVTLSAYITIALLEIPLTVTHPVVRNALFCLESAWKTAQEGDHGSHVYTKALLAYAFALAGNQDKRKEVLKSLNEEAVKKDNSVHWERPQKPKAPVGHFYEPQAPSAEVEMTSYVLLAYLTAQPAPTSEDLTSATNIVKWITKQQNAQGGFSSTQDTVVALHALSKYGAATFTRTGKAAQVTIQSSGTFSSKFQVDNNNRLLLQQVSLPELPGEYSMKVTGEGCVYLQTSLKYNILPEKEEFPFALGVQTLPQTCDEPKAHTSFQISLSVSYTGSRSASNMAIVDVKMVSGFIPLKPTVKMLERSNHVSRTEVSSNHVLIYLDKVSNQTLSLFFTVLQDVPVRDLKPAIVKVYDYYETDEFAIAEYNAPCSKDLGNA | – | increased the number of PGCs surviving in culture | – | –
